Reference: US20050250677A1, “Glycopeptide antibiotic derivatives” (priority 2002, published 2005)
Entries after “also recorded” stand apart in the source; their conditions may differ. Read-outs that look alike come from different tables or passages of the source.

Legend:
Vero cells = settings: read-out: CC50 Vero
[1] = test system: SARS virus (strain Frankfurt-1); test: microbe, parasite or virus in culture; assay type: cell-based, human corona (SARS) virus
VZV (wild-type strains) = test: Anti-VZV assay (wild-type strains): virus-induced cytopathicity in HEL cell cultures; assay type: cell-based, varicella-zoster virus; settings: HEL cell cultures
HEL cells [2] = settings: read-out: CC50 (HEL), HEL cells
HEL cells [3] = test system: HEL cells
CMV = test: Anti-CMV assay: virus-induced cytopathicity in HEL cell cultures
[4] = test system: human lymphocyte Molt4/clone 8; test: Cytostatic activity assay, Molt4/clone 8 cells; assay type: cell-based; settings: read-out: IC50 Molt4/C8 (compound concentration required to inhibit tumor cell proliferation by 50%)
HIV-2(ROD) = test: Inhibition of HIV-2 (ROD)-induced cytopathicity (giant cell formation) in CEM cells; assay type: cell-based
Procedure: (§1) A variety of glycopeptide antibiotic derivatives of vancomycin, eremomycin and teicoplanin including their aglycon derivatives were evaluated for their inhibitory activity against HIV-1 (IIIB) and HIV-2(ROD) in CEM cell cultures.

FCV = test: Feline corona virus assay in Feline Crandel kidney cells (MTS); assay type: cell-based
Procedure: Feline Crandel kidney cells were seeded in 96-well microtiter plates at 24,000 cells/well. Then, 24 hrs later, an appropriate inoculum of FCV is added together with 5-fold dilutions of the test compounds. After 4 days, a MTS/PMS solution was added to each well. Following a 90 min incubation period at 37° C., the optical density of the wells was read at 498 nm in a microplate reader.

murine leukemia L1210 = test: Cytostatic activity assay, L1210 cells; assay type: cell-based; settings: read-out: IC50 L1210 (compound concentration required to inhibit tumor cell proliferation by 50%)
human lymphocyte CEM = test: Cytostatic activity assay, CEM cells; assay type: cell-based; settings: read-out: IC50 CEM (compound concentration required to inhibit tumor cell proliferation by 50%)
HIV-1 (IIIB) = test: Inhibition of HIV-1 (IIIB)-induced cytopathicity (giant cell formation) in CEM cells; assay type: cell-based
Procedure: as §1

[5] = SARS virus in Vero cells, read-out: EC50 SARS virus
[6] = VZV strain OKA, read-out: EC50 VZV (OKA)
[7] = VZV strain YS, read-out: EC50 VZV (YS)
[8] = read-out: EC50 CMV AD-169, CMV strain AD-169, HEL cell cultures
[9] = read-out: EC50 CMV Davis, CMV strain Davis, HEL cell cultures
[10] = read-out: EC50 HIV-2 (concentration required to inhibit HIV-induced giant cell formation by 50%), HIV-2, CEM cell cultures
[11] = FCV in FCK cells, read-out: EC50 FCV
[12] = HIV-1 (IIIB), CEM cell cultures, read-out: EC50 against HIV-1
[13] = read-out: EC50 HIV-1 (concentration required to inhibit HIV-induced giant cell formation by 50%), HIV-1, CEM cell cultures

| Compound | CC50 (Vero cells) [µM] | EC50 [1, 5] [µM] | CC50 (FCK cells; read-out: CC50 FCK, FCK cells) [µM] | IC50 [4] [µM] | EC50 (HIV-2(ROD); [10]) [µM] | EC50 (FCV; [11]) [µM] | IC50 (murine leukemia L1210) [µM] | IC50 (human lymphocyte CEM) [µM] | EC50 (HIV-1 (IIIB); [13]) [µM] | also measured |
| --- | --- | --- | --- | --- | --- | --- | --- | --- | --- | --- |
| CCCCc1ccc(CN2CCN(C(=O)C3NC(=O)C4NC(=O)C(NC(=O)C5NC(=O)C6NC(=O)C(Cc7ccc(c(Cl)c7)Oc7cc5cc(c7O)Oc5ccc(cc5Cl)C4O)NC(=O)C(N)c4ccc(O)c(c4)Oc4cc(O)cc6c4)c4ccc(O)c(c4)-c4c(O)cc(O)cc43)CC2)cc1 (stereo not shown) [Compound 124] | > 100 | 15 | 17 |  |  |  |  |  |  | EC50 (VZV (wild-type strains); [6]): 0.34 µM; EC50 (VZV (wild-type strains); [7]): 0.22 µM; CC50 (HEL cells [2]; anti-CMV table): 71 µM; CC50 (HEL cells [2]; anti-VZV table): 71 µM; MTC (HEL) (HEL cells [3]; anti-CMV table): ≧5-100 μM; MTC (HEL) (HEL cells [3]; anti-VZV table): ≧5-100 μM; anti-CMV activity (CMV): anti-CMV activity; EC50 (CMV; [8]): 2.4 µM; EC50 (CMV; [9]): 3.2 µM |
| CCCCc1ccc(CN2CCN(Cc3c(O)cc4c(c3O)-c3cc(ccc3O)C3NC(=O)C5NC(=O)C(CC(N)=O)NC(=O)C(NC(=O)C(CC(C)C)NC)C(O)c6ccc(c(Cl)c6)Oc6cc5cc(c6OC5OC(CO)C(O)C(O)C5OC5CC(C)(N)C(O)C(C)O5)Oc5ccc(cc5)C(OC5CC(C)(N)C(O)C(C)O5)C(NC3=O)C(=O)NC4C(=O)NC)CC2)cc1 (stereo not shown) [Compound 5] | 54 | 13 | 28 | 17 ± 3 | > 10 | 5.4 | 24 ± 0.4 | 40 ± 4 |  | activity against FCV (FCV): active; also recorded: pronounced activity; EC50 (HIV-1 (IIIB); [12]): 0.43 µM |
| COC(=O)C1NC(=O)C2NC(=O)C(NC(=O)C(N)c3cc(Oc4ccc(CC(NC(=O)OCc5ccccc5)C(=O)O)cc4Cl)c(O)c(c3)Oc3ccc(cc3Cl)C2O)c2ccc(O)c(c2)-c2c1cc(O)c(CNC1C3CC4CC(C3)CC1C4)c2O (stereo not shown) [Compound 54] | > 100 | 47 |  | > 250 | 37 ± 18 | 19 | 181 ± 4 | > 250 | 17 ± 3.5 | CC50 (FCK cells): > 50 µM |
| CC(NC(=O)C1NC(=O)C2NC(=O)C(NC(=O)C3NC(=O)C4NC(=O)C(Cc5ccc(c(Cl)c5)Oc5cc3cc(c5O)Oc3ccc(cc3Cl)C2O)NC(=O)C(N)c2ccc(O)c(c2)Oc2cc(O)cc4c2)c2ccc(O)c(c2)-c2c(O)cc(O)cc21)C12CC3CC(CC(C3)C1)C2 (stereo not shown) [Compound 160] | > 100 | 27 | 56 | 97 ± 10 | 7.5 ± 0.7 | 4.5 | 92 ± 5 | 106 | 3.3 ± 1.4 |  |
| CN(C)CCCNC(=O)C1NC(=O)C2NC(=O)C(NC(=O)C3NC(=O)C4NC(=O)C(Cc5ccc(c(Cl)c5)Oc5cc3cc(c5O)Oc3ccc(cc3Cl)C2O)NC(=O)C(N)c2ccc(O)c(c2)Oc2cc(O)cc4c2)c2ccc(O)c(c2)-c2c1cc(O)c(CN1CCN(Cc3ccc(-c4ccccc4)cc3)CC1)c2O (stereo not shown) [Compound 28] | > 100 | 16 | 21 | > 500 | 8.5 ± 2.1 | > 50 | 318 ± 256 | > 500 | 3.5 ± 0.7 | EC50 (VZV (wild-type strains); [6]): 2.5 µM; EC50 (VZV (wild-type strains); [7]): 2 µM; CC50 (HEL cells [2]; anti-VZV table): 105 µM; MTC (HEL) (HEL cells [3]; anti-VZV table): ≧5-20 μM |
| NC1Cc2ccc(c(Cl)c2)Oc2cc3cc(c2O)Oc2ccc(cc2Cl)C(O)C2NC(=O)C(NC(=O)C3NC(=O)C(c3cc(O)cc(Oc4cc(C5NC(=S)N(c6ccccc6)C5=O)ccc4O)c3)NC1=O)c1ccc(O)c(c1)-c1c(cc(O)c(CNC3C4CC5CC(C4)CC3C5)c1O)C(C(=O)O)NC2=O (stereo not shown) [Compound 55] | > 100 | 31 |  | ≥ 250 |  | 22 | 73 ± 24 | 242 ± 11 |  | EC50 (HIV-2(ROD); HIV-2(ROD), CEM cell cultures, read-out: EC50 against HIV-2): 17 µM; CC50 (FCK cells): > 100 µM; EC50 (HIV-1 (IIIB); [12]): 13 µM |
| NC1C(=O)NC2Cc3ccc(c(Cl)c3)Oc3cc4cc(c3O)Oc3ccc(cc3Cl)C(O)C3NC(=O)C(NC(=O)C4NC(=O)C(NC2=O)c2cc(O)cc(c2)Oc2cc1ccc2O)c1ccc(O)c(c1)-c1c(O)cc(O)cc1C(C(=O)NCC12CC4CC(CC(C4)C1)C2)NC3=O (stereo not shown) [Compound 166] | > 100 | 31 | 49 | 112 ± 2 | 7 | 8.5 | 91 ± 2 | 125 ± 30 | 1.8 ± 0.58 |  |
| NC1C(=O)NC2Cc3ccc(c(Cl)c3)Oc3cc4cc(c3O)Oc3ccc(cc3Cl)C(O)C3NC(=O)C(NC(=O)C4NC(=O)C(NC2=O)c2cc(O)cc(c2)Oc2cc1ccc2O)c1ccc(O)c(c1)-c1c(O)cc(O)cc1C(C(=O)NC1CC2CCC1C2)NC3=O (stereo not shown) [Compound 162] | > 100 | 22 | ≥ 100 |  | 11 | 4.7 |  |  | 4.5 |  |
| COC(=O)C1NC(=O)C2NC(=O)C(NC(=O)C(NC(=O)OC(C)(C)C)c3cc(Oc4ccc(CC(NC(=O)OCc5ccccc5)C(=O)O)cc4Cl)c(O)c(c3)Oc3ccc(cc3Cl)C2O)c2ccc(O)c(c2)-c2c1cc(O)c(CNC1C3CC4CC(C3)CC1C4)c2O (stereo not shown) [Compound 53] | > 100 | 29 |  | 122 ± 13 | 11 ± 5.7 | 36 | 95 ± 10 | 240 ± 13 | 17 ± 3.5 | CC50 (FCK cells): ≥ 100 µM |
| NC1C(=O)NC2Cc3ccc(c(Cl)c3)Oc3cc4cc(c3O)Oc3ccc(cc3Cl)C(O)C3NC(=O)C(NC(=O)C4NC(=O)C(NC2=O)c2cc(O)cc(c2)Oc2cc1ccc2O)c1ccc(O)c(c1)-c1c(O)cc(O)cc1C(C(=O)NCc1ccc(F)cc1)NC3=O (stereo not shown) [Compound 165] | > 100 | 26 | 80 | ≥ 250 | 30 ± 7.1 | 11 | 240 ± 15 | > 250 | 9 ± 5.3 |  |
| CCCCOc1ccc(CN2CCN(C(=O)C3NC(=O)C4NC(=O)C(NC(=O)C5NC(=O)C6NC(=O)C(Cc7ccc(c(Cl)c7)Oc7cc5cc(c7O)Oc5ccc(cc5Cl)C4O)NC(=O)C(N)c4ccc(O)c(c4)Oc4cc(O)cc6c4)c4ccc(O)c(c4)-c4c(O)cc(O)cc43)CC2)cc1 (stereo not shown) [Compound 125] | > 100 | 10 | 14 |  |  | 1.6 |  |  |  | EC50 (VZV (wild-type strains); [6]): 0.32 µM; EC50 (VZV (wild-type strains); [7]): 0.25 µM; CC50 (HEL cells [2]; anti-CMV table): 44 µM; CC50 (HEL cells [2]; anti-VZV table): 44 µM; MTC (HEL) (HEL cells [3]; anti-CMV table): ≧2-20 μM; MTC (HEL) (HEL cells [3]; anti-VZV table): ≧2-20 μM; anti-CMV activity (CMV): anti-CMV activity; EC50 (CMV; [8]): 1.9 µM; EC50 (CMV; [9]): 2.8 µM |
| NCCCCCCNC(=O)C1NC(=O)C2NC(=O)C(NC(=O)C3NC(=O)C4NC(=O)C(Cc5ccc(c(Cl)c5)Oc5cc3cc(c5O)Oc3ccc(cc3Cl)C2O)NC(=O)C(N)c2ccc(O)c(c2)Oc2cc(O)cc4c2)c2ccc(O)c(c2)-c2c(O)cc(O)cc21 (stereo not shown) [Compound 41] | > 100 | 44 | > 50 | > 500 | 17.5 ± 3.5 | 21 | > 500 | > 500 | 15 | EC50 (VZV (wild-type strains); [6]): > 5 µM; EC50 (VZV (wild-type strains); [7]): 12 µM; CC50 (HEL cells [2]; anti-VZV table): 190 µM; MTC (HEL) (HEL cells [3]; anti-VZV table): ≧20-50 μM |
| NC1C(=O)NC2Cc3ccc(c(Cl)c3)Oc3cc4cc(c3O)Oc3ccc(cc3Cl)C(O)C3NC(=O)C(NC(=O)C4NC(=O)C(NC2=O)c2cc(O)cc(c2)Oc2cc1ccc2O)c1ccc(O)c(c1)-c1c(O)cc(O)cc1C(C(=O)N(C(=O)NC1CCCCC1)C1CCCCC1)NC3=O (stereo not shown) [Compound 167] | > 100 | 47 | 62 | 132 ± 9 | 10 ± 2.8 | 7.7 | 130 ± 1 | 165 ± 34 | 6 ± 2.6 |  |
| CCCCc1ccc(CN2CCN(Cc3c(O)cc4c(c3O)-c3cc(ccc3O)C3NC(=O)C5NC(=O)C(CC(N)=O)NC(=O)C(NC(=O)C(CC(C)C)NC)C(O)c6ccc(c(Cl)c6)Oc6cc5cc(c6OC5OC(CO)C(O)C(O)C5OC5CC(C)(N)C(O)C(C)O5)Oc5ccc(cc5Cl)C(O)C(NC3=O)C(=O)NC4C(=O)O)CC2)cc1 (stereo not shown) [Compound 1] | > 100 | 43 | > 50 | > 100 | 22 ± 3.5 | 30 | 53 ± 9 | > 100 | 12 ± 3.5 | EC50 ([1]; read-out: EC50 against SARS virus): 30 to 43 µM; EC50 (FCV; read-out: EC50 against FCV): 30 to 43 µM; EC50 (HIV-1 (IIIB); [12]): 5.5 µM |
